In PubChem BioAssay AID270 (DTP/NCI, 2004):
Where “and” joins values, the source holds several entries; their conditions need not be identical. Equal entries are not always repeated. Results filed as inconclusive are left out.

System: BDF1 mice, s.c. Lewis lung carcinoma, T/C %
Experiment: NCI In Vivo Anticancer Drug Screen. Data for tumor model Lewis Lung Carcinoma (subcutaneous) in B6D2F1 (BDF1) mice
In short: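 The value reflects a ratio in which the treated cohort's survival time or tumour size is compared against mice receiving only vehicle.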

[1] = endpoint: mean tumor weight, dose: 50.0 mg/kg/injection, schedule: Q01DX011 (ip), vehicle: carboxymethylcellulose (CMC), higher = larger tumour
[2] = endpoint: median survival time, dose: 3.12 mg/kg/injection, schedule: Q01DX009 (ip), vehicle: Klucel (hydroxypropylcellulose) (HPC), higher = longer survival
[3] = endpoint: median survival time, dose: 6.25 mg/kg/injection, schedule: Q01DX009 (ip), vehicle: Klucel (hydroxypropylcellulose) (HPC), higher = longer survival
[4] = endpoint: median survival time, dose: 12.5 mg/kg/injection, schedule: Q01DX009 (ip), vehicle: Klucel (hydroxypropylcellulose) (HPC), higher = longer survival
[5] = endpoint: mean tumor weight, dose: 300.0 mg/kg/injection, schedule: Q01DX011 (ip), vehicle: saline, higher = larger tumour

C[C@]12CCC(=O)C=C1CC[C@@H]1[C@@H]2[C@@H](O)C[C@@]2(C)[C@H]1CC[C@]2(O)C(=O)COC(=O)c1ccc([N+](=O)[O-])cc1Cl
T/C (endpoint: mean tumor weight, dose: 25.0 mg/kg/injection, schedule: Q01DX011 (sc), vehicle: steriod suspending solution, higher = larger tumour): 65 % of control
T/C (endpoint: mean tumor weight, dose: 50.0 mg/kg/injection, schedule: Q01DX011 (sc), vehicle: steriod suspending solution, higher = larger tumour): 71 % of control
T/C (endpoint: mean tumor weight, dose: 100.0 mg/kg/injection, schedule: Q01DX011 (sc), vehicle: steriod suspending solution, higher = larger tumour): 47 % of control
T/C (endpoint: mean tumor weight, dose: 200.0 mg/kg/injection, schedule: Q01DX011 (sc), vehicle: steriod suspending solution, higher = larger tumour): 53 % of control
T/C (endpoint: mean tumor weight, dose: 250.0 mg/kg/injection, schedule: Q01DX011 (sc), vehicle: steriod suspending solution, higher = larger tumour): 18 % of control
T/C (endpoint: mean tumor weight, dose: 500.0 mg/kg/injection, schedule: Q01DX011 (sc), vehicle: steriod suspending solution, higher = larger tumour): 25 % of control
T/C (endpoint: mean tumor weight, dose: 750.0 mg/kg/injection, schedule: Q01DX011 (sc), vehicle: steriod suspending solution, higher = larger tumour): 13 % of control

CNS(=O)(=O)c1ncnc2nc[nH]c12
T/C (endpoint: mean tumor weight, dose: 22.0 mg/kg/injection, schedule: Q01DX011 (ip), vehicle: carboxymethylcellulose (CMC), higher = larger tumour): 61 % of control
T/C (endpoint: mean tumor weight, dose: 35.0 mg/kg/injection, schedule: Q01DX011 (ip), vehicle: carboxymethylcellulose (CMC), higher = larger tumour): 62 % of control
T/C [1]: 56 % of control

O=[N+]([O-])O.[Ga]
T/C (endpoint: median survival time, dose: 8.0 mg/kg/injection, schedule: Q01DX009 (ip), vehicle: saline, higher = longer survival): 118 % of control
T/C (endpoint: median survival time, dose: 16.0 mg/kg/injection, schedule: Q01DX009 (ip), vehicle: saline, higher = longer survival): 158 % of control
T/C (endpoint: median survival time, dose: 32.0 mg/kg/injection, schedule: Q01DX009 (ip), vehicle: saline, higher = longer survival): 99 % of control

CCO/C=C1\SC(=S)N(c2ccccc2OC)C1=O
T/C (endpoint: median survival time, dose: 1.56 mg/kg/injection, schedule: Q01DX009 (ip), vehicle: Klucel (hydroxypropylcellulose) (HPC), higher = longer survival): 100 % of control
T/C [2]: 98 % of control
T/C [3]: 109 % of control
T/C [4]: 101 % of control

O=c1cnn(C2OC(CO)C(O)C2O)c(=O)[nH]1 (stereo unspecified)
T/C (endpoint: median survival time, dose: 150.0 mg/kg/injection, schedule: Q01DX009 (ip), vehicle: Klucel (hydroxypropylcellulose) (HPC), higher = longer survival): 150 % of control
T/C (endpoint: median survival time, dose: 600.0 mg/kg/injection, schedule: Q01DX009 (ip), vehicle: Klucel (hydroxypropylcellulose) (HPC), higher = longer survival): 157 % of control

NC(=S)N/N=C\c1ncnc2ccccc12
T/C (endpoint: median survival time, dose: 1.6 mg/kg/injection, schedule: Q01DX009 (ip), vehicle: Klucel (hydroxypropylcellulose) (HPC), higher = longer survival): 104 % of control
T/C [2]: 103 % of control
T/C [3]: 96 % of control and 108 % of control

Cc1cn(C2OC(CO)C(O)C2O)c(=O)[nH]c1=O (stereo unspecified)
T/C (endpoint: mean tumor weight, dose: 62.5 mg/kg/injection, schedule: Q01DX011 (ip), vehicle: saline, higher = larger tumour): 94 % of control
T/C (endpoint: mean tumor weight, dose: 500.0 mg/kg/injection, schedule: Q01DX011 (ip), vehicle: saline, higher = larger tumour): 109 % of control

CCCCCCCCCCCCNCCCCCCCCCCCC
T/C (endpoint: mean tumor weight, dose: 2.5 mg/kg/injection, schedule: Q01DX011 (ip), vehicle: other, higher = larger tumour): 78 % of control
T/C (endpoint: mean tumor weight, dose: 5.0 mg/kg/injection, schedule: Q01DX011 (ip), vehicle: other, higher = larger tumour): 67 % of control
T/C (endpoint: mean tumor weight, dose: 10.0 mg/kg/injection, schedule: Q01DX011 (ip), vehicle: other, higher = larger tumour): 55 % of control

Nc1ccccc1Br
T/C (endpoint: mean tumor weight, dose: 222.0 mg/kg/injection, schedule: Q01DX011 (ip), vehicle: other, higher = larger tumour): 114 % of control
T/C (endpoint: mean tumor weight, dose: 333.0 mg/kg/injection, schedule: Q01DX011 (ip), vehicle: other, higher = larger tumour): 102 % of control

O=S1(=O)CCCO1
T/C (endpoint: mean tumor weight, dose: 10.0 mg/kg/injection, schedule: Q01DX011 (ip), vehicle: saline, higher = larger tumour): 109 % of control
T/C (endpoint: mean tumor weight, dose: 20.0 mg/kg/injection, schedule: Q01DX011 (ip), vehicle: saline, higher = larger tumour): 102 % of control
T/C (endpoint: mean tumor weight, dose: 40.0 mg/kg/injection, schedule: Q01DX011 (ip), vehicle: saline, higher = larger tumour): 78 % of control

Nc1ccc(O)cc1
T/C (endpoint: mean tumor weight, dose: 37.5 mg/kg/injection, schedule: Q01DX011 (ip), vehicle: saline, higher = larger tumour): 96 % of control
T/C [5]: 26 % of control

Nc1nc(=O)n(C2CC(O)C(CO)O2)cc1Br (stereo unspecified)
T/C [1]: 65 % of control
T/C (endpoint: mean tumor weight, dose: 100.0 mg/kg/injection, schedule: Q01DX011 (ip), vehicle: carboxymethylcellulose (CMC), higher = larger tumour): 55 % of control
T/C (endpoint: mean tumor weight, dose: 200.0 mg/kg/injection, schedule: Q01DX011 (ip), vehicle: carboxymethylcellulose (CMC), higher = larger tumour): 64 % of control
T/C (endpoint: mean tumor weight, dose: 400.0 mg/kg/injection, schedule: Q01DX011 (ip), vehicle: carboxymethylcellulose (CMC), higher = larger tumour): 88 % of control
T/C (endpoint: mean tumor weight, dose: 800.0 mg/kg/injection, schedule: Q01DX011 (ip), vehicle: carboxymethylcellulose (CMC), higher = larger tumour): 34 % of control

CCOP(=O)(N1CC1(C)C)N1CC1(C)C (stereo unspecified)
T/C (endpoint: median survival time, dose: 5.0 mg/kg/injection, schedule: Q01DX009 (ip), vehicle: saline, higher = longer survival): 94 % of control
T/C (endpoint: median survival time, dose: 10.0 mg/kg/injection, schedule: Q01DX009 (ip), vehicle: saline, higher = longer survival): 101 % of control
T/C (endpoint: median survival time, dose: 20.0 mg/kg/injection, schedule: Q01DX009 (ip), vehicle: saline, higher = longer survival): 94 % of control
T/C (endpoint: median survival time, dose: 30.0 mg/kg/injection, schedule: Q01DX009 (ip), vehicle: saline, higher = longer survival): 101 % of control
T/C (endpoint: median survival time, dose: 50.0 mg/kg/injection, schedule: Q01DX009 (ip), vehicle: saline, higher = longer survival): 90 % of control
T/C (endpoint: median survival time, dose: 80.0 mg/kg/injection, schedule: Q01DX009 (ip), vehicle: saline, higher = longer survival): 99 % of control

C=C1c2[nH]c3ccccc3c2CN2CCC1/C(=C/C)C2 (stereo unspecified)
T/C (endpoint: mean tumor weight, dose: 0.5 mg/kg/injection, schedule: Q01DX011 (ip), vehicle: saline, higher = larger tumour): 104 % of control
T/C (endpoint: mean tumor weight, dose: 1.0 mg/kg/injection, schedule: Q01DX011 (ip), vehicle: saline, higher = larger tumour): 74 % of control
T/C (endpoint: mean tumor weight, dose: 2.0 mg/kg/injection, schedule: Q01DX011 (ip), vehicle: saline, higher = larger tumour): 102 % of control

CCn1c2ccccc2c2cc(NC(=O)N(CCCl)N=O)ccc21
T/C (endpoint: median survival time, dose: 50.0 mg/kg/injection, schedule: Q01DX001 (ip), vehicle: saline with Tween-80, higher = longer survival): 89 % of control
T/C (endpoint: median survival time, dose: 100.0 mg/kg/injection, schedule: Q01DX001 (ip), vehicle: saline with Tween-80, higher = longer survival): 96 % of control

O=CC1CO1 (stereo unspecified)
T/C (endpoint: mean tumor weight, dose: 29.0 mg/kg/injection, schedule: Q01DX011 (ip), vehicle: saline, higher = larger tumour): 89 % of control
T/C (endpoint: mean tumor weight, dose: 44.0 mg/kg/injection, schedule: Q01DX011 (ip), vehicle: saline, higher = larger tumour): 44 % of control
T/C (endpoint: mean tumor weight, dose: 66.0 mg/kg/injection, schedule: Q01DX011 (ip), vehicle: saline, higher = larger tumour): 75 % of control

CC[CH2][Pb]([CH2]CC)([CH2]CC)[N]1C(=O)c2ccccc2C1=O
T/C (endpoint: median survival time, dose: 3.13 mg/kg/injection, schedule: Q01DX009 (ip), vehicle: Klucel (hydroxypropylcellulose) (HPC), higher = longer survival): 96 % of control
T/C [3]: 87 % of control
T/C [4]: 102 % of control

O=C1N(Br)C(=O)C(c2ccc(Cl)cc2)(c2ccc(Cl)cc2)N1Br
T/C [2]: 100 % of control
T/C [3]: 97 % of control
T/C [4]: 102 % of control
T/C (endpoint: median survival time, dose: 25.0 mg/kg/injection, schedule: Q01DX009 (ip), vehicle: Klucel (hydroxypropylcellulose) (HPC), higher = longer survival): 96 % of control

Cc1ccc2c(Nc3ccc(NS(C)(=O)=O)cc3)c3ccccc3nc2c1C
T/C (endpoint: median survival time, dose: 10.0 mg/kg/injection, schedule: Q01DX009 (ip), vehicle: other, higher = longer survival): 98 % of control
T/C (endpoint: median survival time, dose: 40.0 mg/kg/injection, schedule: Q01DX009 (ip), vehicle: other, higher = longer survival): 124 % of control

CC(C)CCC[C@@H](C)[C@H]1CC[C@H]2[C@@H]3CC=C4C[C@@H](O)CC[C@]4(C)[C@H]3CC[C@]12C
T/C (endpoint: median survival time, dose: 100.0 mg/kg/injection, schedule: Q01DX009 (ip), vehicle: Klucel (hydroxypropylcellulose) (HPC), higher = longer survival): 100 % of control
T/C (endpoint: median survival time, dose: 200.0 mg/kg/injection, schedule: Q01DX009 (ip), vehicle: Klucel (hydroxypropylcellulose) (HPC), higher = longer survival): 90 % of control
T/C (endpoint: median survival time, dose: 400.0 mg/kg/injection, schedule: Q01DX009 (ip), vehicle: Klucel (hydroxypropylcellulose) (HPC), higher = longer survival): 90 % of control
T/C (endpoint: median survival time, dose: 800.0 mg/kg/injection, schedule: Q01DX009 (ip), vehicle: Klucel (hydroxypropylcellulose) (HPC), higher = longer survival): 89 % of control

CS(=O)(=O)OCC(O)C(O)C(O)C(O)COS(C)(=O)=O (stereo unspecified)
T/C (endpoint: mean tumor weight, dose: 50.0 mg/kg/injection, schedule: Q01DX011 (ip), vehicle: saline, higher = larger tumour): 86 % of control and 97 % of control
T/C (endpoint: mean tumor weight, dose: 200.0 mg/kg/injection, schedule: Q01DX011 (ip), vehicle: saline, higher = larger tumour): 54 % of control and 60 % of control
T/C (endpoint: mean tumor weight, dose: 400.0 mg/kg/injection, schedule: Q01DX011 (ip), vehicle: saline, higher = larger tumour): 58 % of control

COc1cc2c(cc1OC)-c1ccc3cc4c(cc3c1N(C)C2)OCO4
T/C (endpoint: median survival time, dose: 5.0 mg/kg/injection, schedule: Q01DX009 (ip), vehicle: water, higher = longer survival): 89 % of control
T/C (endpoint: median survival time, dose: 20.0 mg/kg/injection, schedule: Q01DX009 (ip), vehicle: water, higher = longer survival): 105 % of control
T/C (endpoint: median survival time, dose: 40.0 mg/kg/injection, schedule: Q01DX009 (ip), vehicle: water, higher = longer survival): 89 % of control
T/C (endpoint: median survival time, dose: 80.0 mg/kg/injection, schedule: Q01DX009 (ip), vehicle: water, higher = longer survival): 98 % of control

O=S(=O)(O)c1cc(O)ccc1O
T/C (endpoint: mean tumor weight, dose: 133.0 mg/kg/injection, schedule: Q01DX011 (ip), vehicle: saline, higher = larger tumour): 66 % of control
T/C [5]: 99 % of control and 119 % of control
T/C (endpoint: mean tumor weight, dose: 600.0 mg/kg/injection, schedule: Q01DX011 (ip), vehicle: saline, higher = larger tumour): 67 % of control
